Laboratory results reported in US8653127B2, “Bicyclic pyrazolo-heterocycles” (Cara Therapeutics, Inc., priority 2009, dated 2014).
Where two headings read alike, the source gives them in different places.

Legend:
rat L5/L6 SNL model = assay: Spinal nerve ligation (SNL) model of neuropathic pain, mechanical allodynia; format: in vivo; details: two-way repeated measurement ANOVA, FIG. 1
Protocol: The SNL model (Kim and Chung, 1992, Pain 50(3):355-63) was used to induce chronic neuropathic pain in rats. Rats were anesthetized with isoflurane, the left L5 transverse process was removed, and the L5 and L6 spinal nerves were tightly ligated with 6-0 silk suture. The wound was then closed with internal sutures and external staples. Following at least seven days post SNL, baseline, post-injury and post-treatment values for non-noxious mechanical sensitivity were evaluated using eight Semmes-Weinstein filaments (Stoelting, Wood Dale, Ill., USA) with varying stiffness (0.4, 0.7, 1.2, 2.0, 3.6, 5.5, 8.5, and 15 g) according to the up-down method (Chaplan et al., 1994, J. Neurosci. Meth., 53(1):55-63). Animals were placed on a perforated metallic platform and allowed to acclimate to their surroundings for a minimum of 30 mins before testing.
Rat L5/L6 SNL model (n=6/group; mean±sem). Sensitivity to non-noxious mechanical stimuli was tested before and at various time points following oral administration of compound (36). The mean and standard error of the mean (SEM) were determined for the injured paw in each treatment group. Since this stimulus is normally not considered painful, significant injury-induced increases in responsiveness in this test are interpreted as a measure of mechanical allodynia.

[1] = target: human CB2 receptor (hCB2) (Homo sapiens, UniProt P34972); assay: cAMP assay, agonist/inverse agonist activity at human CB2 receptor; format: cell-based
Sequence of human CB2 receptor (hCB2) (P34972 whole entry): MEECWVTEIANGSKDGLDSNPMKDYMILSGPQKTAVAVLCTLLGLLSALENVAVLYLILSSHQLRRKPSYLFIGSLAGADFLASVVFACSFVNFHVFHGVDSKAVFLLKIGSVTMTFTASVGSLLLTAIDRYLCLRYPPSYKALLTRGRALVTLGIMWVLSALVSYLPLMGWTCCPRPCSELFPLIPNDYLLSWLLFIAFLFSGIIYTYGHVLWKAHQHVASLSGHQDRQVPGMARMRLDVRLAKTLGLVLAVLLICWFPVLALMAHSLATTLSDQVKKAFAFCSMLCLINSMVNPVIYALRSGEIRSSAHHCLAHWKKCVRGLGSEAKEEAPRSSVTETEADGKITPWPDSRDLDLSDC
Protocol: (§1) TR-FRET was measured using a 330-380 nm excitation filter, 615 nm and 665 nm emission filters, dichroic mirror 380 nm and Z=10 mm. cAMP concentrations in each well were back-calculated from a cAMP standard curve run concurrently during each assay. Each plate contained 16 wells of forskolin stimulated cells and 16 wells of forskolin plus 1 μM CP55,940-treated cells. Concentrations of cAMP were expressed as a percent of the difference of these two groups of wells.

[2] = target: human CB1 receptor (hCB1) (Homo sapiens, UniProt P21554); assay: cAMP assay, agonist/inverse agonist activity at human CB1 receptor; format: cell-based; details: hCB1R, read-out: EC50 at hCB1R (Potency at Human CB1 determined by cAMP Assay)
Sequence of human CB1 receptor (hCB1) (P21554 whole entry): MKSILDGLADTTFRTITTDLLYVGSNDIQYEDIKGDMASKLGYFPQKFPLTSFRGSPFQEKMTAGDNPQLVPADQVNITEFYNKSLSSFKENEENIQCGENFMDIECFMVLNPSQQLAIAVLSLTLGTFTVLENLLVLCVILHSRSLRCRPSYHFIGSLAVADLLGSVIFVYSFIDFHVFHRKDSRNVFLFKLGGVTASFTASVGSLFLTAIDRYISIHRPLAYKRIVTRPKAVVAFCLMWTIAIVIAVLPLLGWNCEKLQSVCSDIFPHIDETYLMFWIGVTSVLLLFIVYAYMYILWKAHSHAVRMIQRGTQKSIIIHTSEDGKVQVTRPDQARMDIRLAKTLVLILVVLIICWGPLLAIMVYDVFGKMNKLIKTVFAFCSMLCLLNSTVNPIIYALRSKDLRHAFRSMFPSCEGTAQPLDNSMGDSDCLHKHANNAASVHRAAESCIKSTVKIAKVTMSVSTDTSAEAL
Protocol: The ability of each of the compounds to act as agonists or inverse agonists at human CB2 and CB 1 receptors (hCB2, hCB 1, respectively) and at the rat CB2 receptor (rCB2) was determined by measuring changes in intracellular cyclic AMP (cAMP) levels as described in U.S. Pat. No. 7,517,874.
as §1, with “wells. Concentration-response data including EC50 (the concentration of compound producing 50% of the maximal response) and intrinsic activity (the percent maximal activation compared to full activation by CP55,940) were determined using a four-parameter non-linear regression algorithm (CambridgeSoft Bioassay).” for “wells.”

[3] = hCB2R, cAMP assay, read-out: EC50 at hCB2R (Potency at Human CB2 determined by cAMP Assay)

Row | Structure (SMILES) | EC50 [1] | EC50 [2] | further results
1 | CC(C)(C)[C@H](NC(=O)n1nc(-c2ccc(F)c(F)c2)c2c1CCOC2)C(=O)NCCO [Compound 36, (S)-N-(1-(2-hydroxyethylamino)-3,3-dimethyl-1-oxobutan-2-yl)-3-(3,4-difluorophenyl)-6,7-dihydropyrano[4,3-c]pyrazole-1(4H)-carboxamide] |  |  | sensitivity to non-noxious mechanical stimuli, significance vs. vehicle-controls (rat L5/L6 SNL model; 3 mg/kg oral): significant to p<0.05 vs. vehicle-controls; sensitivity to non-noxious mechanical stimuli, significance vs. vehicle-controls (rat L5/L6 SNL model; 10 mg/kg oral): significant to p<0.001 vs. vehicle-controls; sensitivity to non-noxious mechanical stimuli, significance vs. vehicle-controls (rat L5/L6 SNL model; 30 mg/kg oral): significant to p<0.001 vs. vehicle-controls
2 | CNC(=O)[C@@H](NC(=O)n1nc(-c2cc(C(F)(F)F)ccc2F)c2c1CCN(C)C2)C(C)(C)C [Compound 59, (S)-N-(3,3-dimethyl-1-(methylamino)-1-oxobutan-2-yl)-3-(2-fluoro-5-(trifluoromethyl)phenyl)-5-methyl-4,5,6,7-tetrahydro-1H-pyrazolo[4,3-c]pyridine-1-carboxamide] | < 1000 nM | < 1000 nM | 
3 | CC(C)(C)[C@H](NC(=O)n1nc(-c2ccc(F)c(F)c2)c2c1CCOC2)C(=O)NCCC#N [Compound 104, (S)-N-(1-(2-cyanoethylamino)-3,3-dimethyl-1-oxobutan-2-yl)-3-(3,4-difluorophenyl)-6,7-dihydropyrano[4,3-c]pyrazole-1(4H)-carboxamide] | < 1000 nM | < 1000 nM | 
4 | Cc1cc(NC(=O)[C@@H](NC(=O)n2nc(-c3ccc(F)c(F)c3)c3c2CCOC3)C(C)(C)C)n[nH]1 [Compound 105, (S)-3-(3,4-difluorophenyl)-N-(3,3-dimethyl-1-(5-methyl-1H-pyrazol-3-ylamino)-1-oxobutan-2-yl)-6,7-dihydropyrano[4,3-c]pyrazole-1(4H)-carboxamide] | < 1000 nM | < 1000 nM | 
5 | Cc1cnc(CNC(=O)[C@@H](NC(=O)n2nc(-c3ccc(F)c(F)c3)c3c2CCOC3)C(C)(C)C)cn1 [Compound 106, (S)-3-(3,4-difluorophenyl)-N-(3,3-dimethyl-1-((5-methylpyrazin-2-yl)methylamino)-1-oxobutan-2-yl)-6,7-dihydropyrano-[4,3-c]pyrazole-1(4H)-carboxamide] |  | < 1000 nM | EC50 [1, 3]: < 1000 nM
6 | CC(C)(C)[C@H](NC(=O)n1nc(-c2ccc(F)c(F)c2)c2c1CCOC2)C(=O)N1CCN(c2ncccn2)CC1 [Compound 107, (S)-3-(3,4-difluorophenyl)-N-(3,3-dimethyl-1-oxo-1-(4-(pyrimidin-2-yl)piperazin-1-yl)butan-2-yl)-6,7-dihydropyrano[4,3-c]pyrazole-1(4H)-carboxamide] |  | < 1000 nM | EC50 [1, 3]: < 1000 nM
7 | CC(C)(C)[C@H](NC(=O)n1nc(-c2ccc(F)c(F)c2)c2c1CCOC2)C(=O)N1CCN(c2nccs2)CC1 [Compound 108, (S)-3-(3,4-difluorophenyl)-N-(3,3-dimethyl-1-oxo-1-(4-(thiazol-2-yl)piperazin-1-yl)butan-2-yl)-6,7-dihydropyrano[4,3-c]pyrazole-1(4H)-carboxamide] | < 1000 nM | < 1000 nM | 
8 | CC(C)(C)[C@H](NC(=O)n1nc(-c2ccc(F)c(F)c2)c2c1CCOC2)C(=O)N1CCC[C@H]1CO [Compound 109, 3-(3,4-difluorophenyl)-N-((S)-1-((S)-2-(hydroxymethyl)pyrrolidin-1-yl)-3,3-dimethyl-1-oxobutan-2-yl)-6,7-dihydropyrano[4,3-c]pyrazole-1(4H)-carboxamide] | < 1000 nM | < 1000 nM | 
9 | CC(C)(C)[C@H](NC(=O)n1nc(-c2ccc(F)c(F)c2)c2c1CCOC2)C(=O)N1CCS(=O)(=O)CC1 [Compound 110, (S)-3-(3,4-difluorophenyl)-N-(3,3-dimethyl-1-oxo-1-thiomorpholinodioxide-butan-2-yl)-6,7-dihydropyrano[4,3-c]pyrazole-1(4H)-carboxamide] |  | < 1000 nM | EC50 [1, 3]: > 1000 nM
10 | CC(C)(C)[C@H](NC(=O)n1nc(-c2ccc(F)c(F)c2)c2c1CCOC2)C(=O)N1CCNC(=O)C1 [Compound 111, (S)-3-(3,4-difluorophenyl)-N-(3,3-dimethyl-1-oxo-1-(3-oxopiperazin-1-yl)butan-2-yl)-6,7-dihydropyrano[4,3-c]pyrazole-1(4H)-carboxamide] | < 1000 nM | < 1000 nM | 
11 | CN(C)S(=O)(=O)N1CCN(C(=O)[C@@H](NC(=O)n2nc(-c3ccc(F)c(F)c3)c3c2CCOC3)C(C)(C)C)CC1 [Compound 112, (S)-3-(3,4-difluorophenyl)-N-(1-(4-(N,N-dimethylsulfamoyl)piperazin-1-yl)-3,3-dimethyl-1-oxobutan-2-yl)-6,7-dihydropyrano-[4,3-c]pyrazole-1(4H)-carboxamide] |  | < 1000 nM | EC50 [1, 3]: > 1000 nM
12 | Cc1nnc(CNC(=O)[C@@H](NC(=O)n2nc(-c3ccc(F)c(F)c3)c3c2CCOC3)C(C)(C)C)o1 [Compound 113, (S)-3-(3,4-difluorophenyl)-N-(3,3-dimethyl-1-((5-methyl-1,3,4-oxadiazol-2-yl)methylamino)-1-oxobutan-2-yl)-6,7-dihydropyrano[4,3-c]pyrazole-1(4H)-carboxamide] | < 1000 nM | < 1000 nM | 
13 | CC(C)(C)[C@H](NC(=O)c1nn(-c2ccc(Cl)cc2F)c2c1COCC2)C(=O)NCCO [Compound 117, (S)-1-(4-chloro-2-fluorophenyl)-N-(1-(2-hydroxyethylamino)-3,3-dimethyl-1-oxobutan-2-yl)-1,4,6,7-tetrahydropyrano[4,3-c]pyrazole-3-carboxamide] | < 1000 nM | < 1000 nM | 
14 | CC(C)(C)[C@H](NC(=O)c1nn(-c2ccc(Cl)cc2F)c2c1CCOC2)C(=O)NCCO [Compound 118, (S)-1-(4-chloro-2-fluorophenyl)-N-(1-(2-hydroxyethylamino)-3,3-dimethyl-1-oxobutan-2-yl)-1,4,5,7-tetrahydropyrano[3,4-c]pyrazole-3-carboxamide] | < 1000 nM | < 1000 nM | 
15 | CC(C)(C)[C@H](NC(=O)c1nn(-c2cc(Cl)ccc2F)c2c1COCC2)C(=O)NCCO [Compound 119, (S)-1-(5-chloro-2-fluorophenyl)-N-(1-(2-hydroxyethylamino)-3,3-dimethyl-1-oxobutan-2-yl)-1,4,6,7-tetrahydropyrano[4,3-c]pyrazole-3-carboxamide] | < 1000 nM | < 1000 nM | 
16 | CNC(=O)[C@@H](NC(=O)c1nn(-c2ccc(F)c(F)c2)c2c1CN(C)CCC2)C(C)(C)C [Compound 120, (S)-1-(3,4-difluorophenyl)-N-(3,3-dimethyl-1-(methylamino)-1-oxobutan-2-yl)-5-methyl-1,4,5,6,7,8-hexahydropyrazolo[4,3-c]azepine-3-carboxamide] | < 1000 nM | < 1000 nM | 
17 | CC(C)(C)[C@H](NC(=O)c1nn(-c2cc(Cl)ccc2F)c2c1COCC2)C(=O)N1CCNC(=O)C1 [Compound 121, (S)-1-(5-chloro-2-fluorophenyl)-N-(3,3-dimethyl-1-oxo-1-(3-oxopiperazin-1-yl)butan-2-yl)-1,4,6,7-tetrahydropyrano[4,3-c]pyrazole-3-carboxamide] |  | < 1000 nM | hCBR2 activity ([1]; cAMP assay): no detectable hCBR2 activity
18 | CC(C)(C)C(NC(=O)c1nn(-c2cc(Cl)ccc2F)c2c1COCC2)C(=O)N1CCC[C@H]1CO (stereo partly drawn) [Compound 122] | < 1000 nM | < 1000 nM | 
19 | Cc1nnc(CNC(=O)[C@@H](NC(=O)c2nn(-c3cc(Cl)ccc3F)c3c2COCC3)C(C)(C)C)o1 [Compound 123] |  | < 1000 nM | hCBR2 activity ([1]; cAMP assay): no detectable hCBR2 activity
